Test results published in patent publication US20250295658A1, “ANTIPARASITIC AGENTS AND METHODS” (Whitehead Institute for Biomedical Research, priority 2022, published 2025).

Columns and labels:
[1] = tested on: C57BL/6J mouse embryonic fibroblasts; test: Proliferation of mouse embryonic fibroblasts in DAHP treatment; assay type: cell-based; conditions: 5 mM DAHP, 48 hours; FIG. 2E
Method: Proliferation of Mouse Embryonic Fibroblasts in DAHP Treatment Twenty-thousand immortalized C57BL/6J mouse embryonic fibroblasts were plated in a well of a 6-well plate and treated with 5 mM DAHP or PBS vehicle. The cells were allowed to grow for 48 hours, then trypsinized and counted. Population doublings were calculated as follows: [formula] [formula]

Toxoplasma gondii [2] = test: Pyrimethamine/DAHP drug synergy lytic assays; assay type: cell-based; conditions: pyrimethamine in combination with 2.5 mM DAHP; FIGS. 1G-H
Method: Pyrimethamine/DAHP Drug Synergy Lytic Assays
96 well plates were utilized to generate 8-point dosage curves of parasites grown in various concentrations of pyrimethamine with and without 2.5 mM DAHP. At the start of the assay, prior to parasite harvest, 96 well plates containing confluent fibroblasts were set up with 1.33× the desired final drug concentrations in 150 μl of volume. This ensured that the addition of 50 μl of parasites would result in the desired 1× drug concentration of both pyrimethamine and DAHP. Wells designated as containing less than the maximum dosage of either drug (10 μg/ml pyrimethamine and 2.5 mM DAHP) received the equivalent volume of vehicle (ethanol for pyrimethamine, PBS for DAHP). Parasites were then force-lysed, filtered, and resuspended to a concentration of 5e5 parasites/ml. 50 μl of parasites were then added to each well, resulting in an infection of 2.5e4 parasites per well. Plates were then spun at 290 g for 5 min. Plates were then incubated for 3 days to allow for parasite plaquing. Plates were then washed with PBS followed by staining with crystal violet as conducted for plaque assays. Well staining was then quantified by plate reader at the 570 nm wavelength. […] Drug curves were then generated and IC50 values were calculated from biological triplicate experiments in GraphPad Prism 9.

[3] = cited from earlier work
NF54 P. falciparum = test: SYBR Green I-based dose-response assay in Plasmodium falciparum; assay type: cell-based; conditions: atovaquone with 1 mM DAHP, FIGS. 2C-D
Method: The NF54 P. falciparum line was cultured and synchronized as described previously.^28,29 Cultures were kept at 37° C. in RPMI-1640 medium supplemented with 25 mM HEPES, 100 μM hypoxanthine, 0.5% Albumax II, 24 mM sodium bicarbonate, 25 μg/mL gentamicin (Life Technologies, Carlsbad, CA 11021-045) and gassed with 5% CO2, 1% O2, and 94% N2 mixture. Dose-Response Assay in Plasmodium falciparum A SYBR Green I-based assay was used to measure in vitro P. falciparum drug susceptibility.^30,31 Ring-stage NF54 parasites were seeded at 1% hematocrit and 1% starting parasitemia in 384-well black clear-bottom plates containing test compounds (stocks of 10 mM pyrimethamine, 0.1 mM atovaquone, and 10 mM DHA in DMSO) plated in triplicate in 12-point serial dilutions for 72 h. […] Lysis buffer (0.16% w/v saponin, 1.6% Triton X-100, 5 mM EDTA, and 20 mM Tris-HCl, pH 7.4) with a 1:1000 dilution of SYBR Green I fluorescent dye (Invitrogen) was added for at least 12 h, and fluorescence readings were taken (excitation at 494 nm, emission at 530 nm) using a SpectraMax M5 (Molecular Devices, Sunnyvale, CA) plate reader. IC50 values were calculated using a nonlinear regression curve fit in Graphpad Prism 9 in biological triplicate.

Toxoplasma gondii [4] = test: Plaque assays with DAHP and BH4; assay type: cell-based; conditions: FIG. 1F
Method: Plaque Assays with DAHP and BH4
RHAku80 were maintained for at least two passages in DMEM and HPLM prior to beginning the plaque assay. Confluent human fibroblasts were maintained in 6-well plates in either DMEM or HPLM for at least 24 h prior to the start of the assay. To begin the experiment, parasites maintained in DMEM and HPLM were syringe released and filtered through a […]. Parasites were then counted and diluted such that each well received 500 parasites. Wells were then treated with the indicated concentrations of DAHP or PBS vehicle. For the BH4 rescue experiments, wells received 50 μM BH4 or the equivalent volume of DMSO vehicle. Plaques were allowed to grow for 6 days prior to fixation. For fixation, wells were first washed with PBS, then fixed for 10 min at room temperature with 100% ethanol. Wells were then stained for 10 min with crystal violet (12.5 g crystal violet, 125 ml 100% ethanol, 500 ml 1% ammonium oxalate). Wells were then washed three times with water and allowed to dry overnight.

[5] = tested on: DD-BFD2, CST10-fLuc, pSAG1-nLuc reporter strain; test: Firefly and nano-luciferase assays of the DD-BFD2, CST10-fLuc, pSAG1-nLuc reporter strain; assay type: cell-based, Toxoplasma; conditions: 3 μM shield-1
Text: This strain is able to recapitulate the biology of both the acute tachyzoite stage as well as the chronic bradyzoite stage. Differentiation from the tachyzoite to bradyzoite stage is mediated through the expression of Bradyzoite Formation Deficient 2 (BFD2) tagged with a degradation domain. Under standard conditions, the degradation domain ensures BFD2 is degraded from parasites, maintaining them in the tachyzoite stage. Upon the addition of the small-molecule shield-1, BFD2 is stabilized and causes differentiation of parasites to the bradyzoite stage.^34 The engineered parasite strain allows the use of a dual-luciferase system to report on differentiation status and general parasite viability. Expression of firefly luciferase is driven by fusion via t2a peptide to the bradyzoite marker CST10, whereas expression of nano-luciferase is driven by the tachyzoite promoter SAG1. Addition of shield-1 is able to simultaneously increase the CST10 bradyzoite marker while decreasing the SAGI tachyzoite marker (FIGS. 2G-H). […] This enables examination of the chronic parasite state with minimal interference on the endogenous circuity. Chemical screens of this engineered strain can therefore identify compounds that bias parasite state either to the tachyzoite or bradyzoite stage, as well as compounds capable of killing both stages simultaneously. […]

Row | SMILES | growth of a proliferative mouse fibroblast cell line (population doublings) [1] | reduction in the pyrimethamine IC50 value (Toxoplasma gondii [2]) | solubility [3] | potentiating effect in combination with atovaquone (NF54 P. falciparum) | effect on parasite viability (plaque assay) (Toxoplasma gondii [4]; 2.5 mM DAHP) | parasite lytic cycle (plaque assay) (Toxoplasma gondii [4]; 5 mM DAHP) | antiparasitic effect of DAHP with exogenous BH4 (Toxoplasma gondii [4]; exogenous BH4 (50 μM)) | CST10 bradyzoite marker (firefly luciferase reporter) ([5]; FIG. 2G) | SAG1 tachyzoite marker (nano-luciferase reporter) ([5]; FIG. 2H)
1 | Nc1cc(O)nc(N)n1 [DAHP, 2,4-diamino-6-hydroxypyrimidine] | no effect | 70% | poor | no potentiating effect | no apparent effect | able to block the parasite lytic cycle | rescued |  | 
2 | CC[C@H](C(=O)N1CCCC[C@H]1C(=O)O[C@H](CCc1ccc(OC)c(OC)c1)c1cccc(OCCN2CCOCC2)c1)c1cc(OC)c(OC)c(OC)c1 [shield-1] |  |  |  |  |  |  |  | increase | decreasing
